This is an account of results in publication PMC5461367, “Neurologically Potent Molecules from Crataegus oxyacantha; Isolation, Anticholinesterase Inhibition, and Molecular Docking” (Frontiers in Pharmacology, 2017).

The target of one test is BChE (Homo sapiens, UniProt P06276). The test is described as follows: biochemical. The settings on record: for inhibition at 62.5 µg/mL / inhibition at 250 µg/mL: read-out: % BChE inhibition; for IC50: read-out: BChE IC50 (μM ± SEM). As to the method: (§1) This yellow compound is UV detectable and is quantified with the passage of time with and without the impact of inhibitor agent. Briefly, from each enzyme solution, 5 μl were added to wells of micro plate and 5 μl DTNB was added to it. The resultant mixture was incubated for 15 min at 30°C in water bath followed by addition of 5 μl substrate solution. […] Control contains all solutions except inhibitor. Change in absorbance was recorded along with reaction time. At the end, Enzymes and enzymes inhibitory activities by control and our test samples were calculated from the rate of absorption with change in time as (V = Δ Abs /Δ t) and Enzyme inhibition as; Percent Enzyme activity = 100 × V/VMax.
Sequence of BChE (P06276 29-602): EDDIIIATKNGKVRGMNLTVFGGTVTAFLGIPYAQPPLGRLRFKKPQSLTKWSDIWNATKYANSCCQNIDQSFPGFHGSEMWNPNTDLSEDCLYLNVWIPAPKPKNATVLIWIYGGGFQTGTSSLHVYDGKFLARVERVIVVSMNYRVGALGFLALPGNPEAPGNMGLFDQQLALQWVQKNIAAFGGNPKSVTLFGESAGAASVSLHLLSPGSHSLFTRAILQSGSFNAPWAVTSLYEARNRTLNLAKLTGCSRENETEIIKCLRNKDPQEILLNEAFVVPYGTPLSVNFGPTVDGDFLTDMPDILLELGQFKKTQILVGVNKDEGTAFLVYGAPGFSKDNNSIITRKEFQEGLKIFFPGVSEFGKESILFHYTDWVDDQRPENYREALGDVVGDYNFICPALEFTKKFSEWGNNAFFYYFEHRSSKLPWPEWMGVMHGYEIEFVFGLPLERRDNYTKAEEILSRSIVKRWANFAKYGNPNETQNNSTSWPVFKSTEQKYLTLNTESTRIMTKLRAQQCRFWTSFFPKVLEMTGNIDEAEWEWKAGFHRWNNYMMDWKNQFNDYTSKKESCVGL
(§2) Where, VMax is enzyme activity in the absence of inhibitor agent.

In a further test the target is AChE (Homo sapiens, UniProt P22303). Nature of the test: biochemical. Conditions: for inhibition at 62.5 µg/mL: 62.5 μg/ml; for inhibition at 250 µg/mL: 250 μg/ml; for IC50: read-out: AChE IC50 (μM ± SEM). On the procedure: as §1, §2
Sequence of AChE (P22303 32-614): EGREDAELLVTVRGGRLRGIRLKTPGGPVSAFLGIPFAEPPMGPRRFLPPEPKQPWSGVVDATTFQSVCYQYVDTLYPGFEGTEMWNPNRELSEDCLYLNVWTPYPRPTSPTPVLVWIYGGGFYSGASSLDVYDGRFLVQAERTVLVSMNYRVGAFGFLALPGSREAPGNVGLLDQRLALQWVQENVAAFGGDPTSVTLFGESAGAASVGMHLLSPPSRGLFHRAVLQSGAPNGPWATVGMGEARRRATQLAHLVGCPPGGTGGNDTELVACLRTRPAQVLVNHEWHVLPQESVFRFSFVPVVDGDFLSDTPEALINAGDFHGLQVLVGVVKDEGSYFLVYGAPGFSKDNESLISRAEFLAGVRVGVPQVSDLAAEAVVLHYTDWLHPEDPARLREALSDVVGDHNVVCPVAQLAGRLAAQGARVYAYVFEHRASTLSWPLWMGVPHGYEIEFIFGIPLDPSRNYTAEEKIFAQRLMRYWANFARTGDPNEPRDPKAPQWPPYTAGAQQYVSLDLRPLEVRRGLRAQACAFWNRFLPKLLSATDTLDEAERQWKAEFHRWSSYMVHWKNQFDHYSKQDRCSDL
Another test concerns human brain based AChE. Conditions: ref Harvey, 1995; cited from earlier work.
Setting [1] is: ratio of IC50 values, footnote b not given.
The mark [2] stands for this setting: ratio of IC50 values, footnote a not given.

Several values for one entry are separate records, joined by “and”; a condition that tells them apart may be missing. Equal entries are not always repeated. Where two headings read alike, the source gives them in different places.

As a reminder, the inhibition is the percentage by which the read-out fell short of the control. As a reminder, the IC50 is the concentration at which inhibition is half-maximal. Consider `COc1ccc(C(CO)OC)cc1OC` (stereo not shown) [Compound 1, 2-(3,4-Dimethoxyphenyl)-2-Methoxyethanol], for which the inhibition at 62.5 µg/mL at BChE (62.5 μg/ml) is 84.3 ± 2.19%; at AChE it was 89.7 ± 1.47%. Moreover, the inhibition at 250 µg/mL came out at 90.7 ± 1.34% on BChE (250 μg/ml) and 97.3 ± 1.06% against AChE. Also, on BChE (setting [1]), the BChE selectivity came out at 9.62. The IC50 came to 2.41 ± 0.09 µM at BChE and 23.2 ± 1.02 µM on AChE. For the same molecule, the AChE selectivity at AChE (setting [2]) is 0.10.
Consider `COc1cc(C(=O)CCO)ccc1O` [Compound 2, 3-Hydroxy-1-(4-Hydroxy-3-Methoxyphenyl) Propan-1-One], for which the inhibition at 62.5 µg/mL amounted to 87.6 ± 1.06% at BChE (62.5 μg/ml) and 83.74 ± 0.68% against AChE. For the same molecule, the values for the inhibition at 250 µg/mL on BChE (250 μg/ml) and against AChE were 95.76 ± 0.71% and 93.05 ± 0.75%, respectively. Also, the BChE selectivity on BChE (setting [1]) was 1.69. Besides, the IC50 on BChE worked out at 15.4 ± 1.01 µM; on AChE, 25.9 ± 1.35 µM. For the same molecule, on AChE (setting [2]), the AChE selectivity is listed as 0.59.
Turning to `CCC(CCC(C)C1CCC2C3CC=C4CC(OC5OC(CO)C(O)C(O)C5O)CCC4(C)C3CCC12C)C(C)C` [Compound 3, β-Sitosterol-3-O-β-D-Glucopyranoside], the inhibition at 62.5 µg/mL on BChE (62.5 μg/ml) turned out to be 83.03 ± 0.35%; against AChE, 87.9 ± 0.52%. The inhibition at 250 µg/mL at BChE (250 μg/ml) was 94.84 ± 0.3%; against AChE it was 95.7 ± 1.6%. In addition, the BChE selectivity at BChE (setting [1]) came out at 0.47. Besides, the IC50 is 11.8 ± 0.93 µM at BChE and 5.22 ± 0.59 µM on AChE. Further, at AChE (setting [2]), the AChE selectivity was 2.26.
Turning to `C=C(C)[C@@H]1CC[C@]2(C)CC[C@]3(C)[C@H](CC[C@@H]4[C@@]5(C)CC[C@H](O)C(C)(C)[C@@H]5CC[C@]43C)[C@@H]12` [Compound 4, Lupeol], the inhibition at 62.5 µg/mL at BChE (62.5 μg/ml) came out at 85.8 ± 1.5%; at AChE it was 77.87 ± 0.26%. Moreover, the values for the inhibition at 250 µg/mL on BChE (250 μg/ml) and on AChE were 91.42 ± 0.43% and 93.73 ± 0.78%, respectively. For the same molecule, on BChE (setting [1]), the BChE selectivity was found to be 27.71. The IC50 at BChE came out at 1.31 ± 0.12 µM; at AChE, 36.3 ± 1.89 µM. The AChE selectivity on AChE (setting [2]) was 0.04.
Regarding `CC[C@H](CC[C@@H](C)[C@H]1CC[C@H]2[C@@H]3CC=C4C[C@@H](O)CC[C@]4(C)[C@H]3CC[C@]12C)C(C)C` [Compound 5, β-Sitosterol], on BChE, the BChE selectivity stood at 26.62; the IC50 was 0.55 µM and 0.56 µM. Further, the inhibition at 62.5 µg/mL at BChE (62.5 μg/ml) amounted to 87.08 ± 0.47%. The inhibition at 250 µg/mL at BChE (250 μg/ml) came to 92.6 ± 1.12%. Moreover, at AChE, the AChE selectivity amounted to 0.04, testing at 62.5 µg/mL gave an inhibition of 80%, at 250 µg/mL the inhibition was 91.33 ± 0.49% and the IC50 is 14.6 ± 0.85 µM.
`C=C(C)[C@@H]1CC[C@]2(CO)CC[C@]3(C)[C@H](CC[C@@H]4[C@@]5(C)CC[C@H](O)C(C)(C)[C@@H]5CC[C@]43C)[C@@H]12` [Compound 6, 3β, 28-Dihydroxylup-20(29)-ene]: the inhibition at 62.5 µg/mL was determined as 82.5 ± 0.9% at BChE (62.5 μg/ml) and 84 ± 1.15% on AChE. In addition, the inhibition at 250 µg/mL was 95.8 ± 2.25% on BChE (250 μg/ml) and 96.13 ± 0.2% against AChE. For the same molecule, the BChE selectivity on BChE (setting [1]) stood at 0.93. The IC50 on BChE was 25.6 ± 1.25 µM; at AChE, 24 ± 1.1 µM. Moreover, the AChE selectivity at AChE (setting [2]) was found to be 1.06.
For the molecule `C=C(C)[C@@H]1CC[C@]2(C(=O)O)CC[C@]3(C)[C@H](CC[C@@H]4[C@@]5(C)CC[C@H](O)C(C)(C)[C@@H]5CC[C@]43C)[C@@H]12` [Compound 7, 3β-Dihydroxylup-20(29)-ene-28-oic Acid], the figures for the inhibition at 62.5 µg/mL at BChE (62.5 μg/ml) and against AChE were 87.2 ± 1.28% and 77.7 ± 1.25%, respectively. Besides, the inhibition at 250 µg/mL at BChE (250 μg/ml) worked out at 94.1 ± 0.6%; against AChE it was 95.7 ± 1.6%. Further, the BChE selectivity on BChE (setting [1]) was found to be 12.78. Also, the results for the IC50 at BChE and on AChE were 3.48 ± 0.15 µM and 44.5 ± 1.73 µM, respectively. Besides, the AChE selectivity on AChE (setting [2]) worked out at 0.07.
On to `O=c1cc(-c2ccccc2)oc2cc(O)cc(O)c12` [Compound 9, 5,7-Dihydroxyflavone], for which the values for the inhibition at 62.5 µg/mL on BChE (62.5 μg/ml) and against AChE were 80.9 ± 1.9% and 81.2 ± 0.23%, respectively. Besides, the values for the inhibition at 250 µg/mL on BChE (250 μg/ml) and on AChE were 85% and 93.67 ± 0.88%, respectively. In addition, on BChE (setting [1]), the BChE selectivity was 51.27. Moreover, the results for the IC50 at BChE and at AChE were 0.63 ± 0.06 µM and 32.3 ± 1.8 µM, respectively. The AChE selectivity on AChE (setting [2]) came out at 0.02.
For the molecule `COc1ccc2c3c1O[C@H]1C[C@@H](O)C=C[C@@]31CCN(C)C2` [Galantamine, reference compound], the “lower potency against human brain based AChE as compared to RBCs variant” value in the test on human brain based AChE is 10 times. Further, on BChE, the inhibition at 62.5 µg/mL turned out to be 87.8 ± 1.01% and the inhibition at 250 µg/mL came to 95.3 ± 1.09%.
